Read-outs that look alike come from different tables or passages of the source. Marks after values point to notes of the source that are not given here.
Columns and labels:
Type in all cases: in vivo
Plasmopara viticola = assay: Foliar fungal disease test on plants: Plasmopara viticola (Pv)
Protocol: (§1) The compounds were tested against a variety of foliar fungal diseases of plants. The technique employed was as follows.
(§2) The plants were grown in John Innes Potting Compost (No.1 or 2) in 4 cm diameter minipots. The test compounds were formulated either by bead milling with aqueous Dispersol T or as a solution in acetone or acetone/ethanol which was diluted to the required concentration immediately before use. For the foliage diseases, the formulations (100 ppm active ingredient except where otherwise indicated) were sprayed onto the foliage and applied to the roots of the plants in the soil. The sprays were applied to maximum retention and the root drenches to a final concentration equivalent to approximately 40 ppm a.i. in dry soil. Tween 20, to give a final concentration of 0.05%, was added when the sprays were applied to cereals.
(§3) For most of the tests the compound was applied to the soil (roots) and to the foliage (by spraying) one or two days before the plant was inoculated with the disease. An exception was the test on Erysiphe graminis in which the plants were inoculated 24 hours before treatment. Foliar pathogens were applied by spray as spore suspensions onto the leaves of test plants. After inoculation, the plants were put into an appropriate environment to allow infection to proceed and then incubated until the disease was ready for assessment. The period between inoculation and assessment varied from four to fourteen days according to the disease and environment.
(§4) The disease control vas recorded by the following grading:
(§5) 3=trace-5% of disease on untreated plants
(§6) 2=6-25% of disease on untreated plants
(§7) 1=26-59% of disease on untreated plants
(§8) 0=60-100% of disease on untreated plants

[1] = test system: Phytophthora infestans lycopersici
Erysiphe graminis hordei = assay: Foliar fungal disease test on plants: Erysiphe graminis hordei (Egh)
Protocol: as §1, §2, §3, §4, §5, §6, §7, §8
Egh Erysiphe graminis hordei

Pyricularia oryzae = test system: Pyricularia oryzae
Puccinia recondita = assay: Foliar fungal disease test on plants: Puccinia recondita (Pr)
Protocol: as §1, §2, §3, §4, §5, §6, §7, §8

Venturia inaequalis = assay: Foliar fungal disease test on plants: Venturia inaequalis (Vi)
Protocol: as §1, §2, §3, §4, §5, §6, §7, §8

[2] = 100 ppm active ingredient foliar spray plus root drench (approx. 40 ppm a.i. in dry soil), one or two days before inoculation
[3] = 100 ppm active ingredient foliar spray plus root drench (approx. 40 ppm a.i. in dry soil), plants inoculated 24 hours before treatment

Structure (SMILES)	disease control grading, Pv (Plasmopara viticola) (Plasmopara viticola; [2])	disease control grading, Pil (Phytophthora infestans lycopersici) [1, 2]	disease control grading, Egh (Erysiphe graminis hordei) (Erysiphe graminis hordei; [3])	disease control grading, Po (Pyricularia oryzae) (Pyricularia oryzae; [2])	disease control grading, Pr (Puccinia recondita) (Puccinia recondita; [2])	disease control grading, Vi (Venturia inaegualis) (Venturia inaequalis; [2])	disease control grading, Pv (Plasmopara viticola) (Plasmopara viticola; 10 ppm foliar application only)	disease control grading, Pil (Phytophthora infestans lycopersici) ([1]; 10 ppm foliar application only)	disease control grading, Egh (Erysiphe graminis hordei) (Erysiphe graminis hordei; 10 ppm foliar application only)	disease control grading, Po (Pyricularia oryzae) (Pyricularia oryzae; 10 ppm foliar application only)	disease control grading, Pr (Puccinia recondita) (Puccinia recondita; 10 ppm foliar application only)	disease control grading, Vi (Venturia inaegualis) (Venturia inaequalis; 10 ppm foliar application only)
CO/C=C(/C(=O)OC)c1ccccc1Oc1cc(OCCc2c(F)cccc2F)ncn1 [370 of Table I]	4 (4=no disease)	4 (4=no disease)	4 (4=no disease)	4 (4=no disease)	4 (4=no disease)	4 (4=no disease)	–	–	–	–	–	–
CO/C=C(/C(=O)OC)c1ccccc1Oc1cc([S+]([O-])c2ccccn2)ncn1 (stereo not shown) [355 of Table I]	0 (0=60-100% of disease on untreated plants)	0 (0=60-100% of disease on untreated plants)	4 (4=no disease)	–	0 (0=60-100% of disease on untreated plants)	4 (4=no disease)	–	–	–	–	–	–
CO/C=C(/C(=O)OC)c1ccccc1Oc1cc(OCCc2ccccc2Cl)ncn1 [368 of Table I]	4 (4=no disease)	3 (3=trace-5% of disease on untreated plants)	4 (4=no disease)	3 (3=trace-5% of disease on untreated plants)	4 (4=no disease)	4 (4=no disease)	–	–	–	–	–	–
CO/C=C(/C(=O)OC)c1ccccc1Oc1cc(Nc2ccccc2O)ncn1 [379 of Table I]	4 (4=no disease)	0 (0=60-100% of disease on untreated plants)	0 (0=60-100% of disease on untreated plants)	0 (0=60-100% of disease on untreated plants)	3 (3=trace-5% of disease on untreated plants)	–	–	–	–	–	–	–
CO/C=C(/C(=O)OC)c1ccccc1Oc1cc(OCc2c(F)cccc2F)ncn1 [374 of Table I]	4 (4=no disease)	4 (4=no disease)	4 (4=no disease)	4 (4=no disease)	4 (4=no disease)	4 (4=no disease)	–	–	–	–	–	–
CO/C=C(/C(=O)OC)c1ccccc1Oc1cc(Sc2ccccc2C#N)ncn1 [134 of Table I]	4 (4=no disease)	–	4 (4=no disease)	2 (2=6-25% of disease on untreated plants)	4 (4=no disease)	–	–	–	–	–	–	–
CO/C=C(/C(=O)OC)c1ccccc1Oc1cc(OCCc2c(F)cccc2Cl)ncn1 [372 of Table I]	4 (4=no disease)	4 (4=no disease)	4 (4=no disease)	4 (4=no disease)	4 (4=no disease)	4 (4=no disease)	–	–	–	–	–	–
CO/C=C(/C(=O)OC)c1ccccc1Oc1cc(OC(c2ccccc2)C(F)(F)F)ncn1 (stereo not shown) [371 of Table I]	4 (4=no disease)	0 (0=60-100% of disease on untreated plants)	4 (4=no disease)	4 (4=no disease)	4 (4=no disease)	4 (4=no disease)	–	–	–	–	–	–
CO/C=C(/C(=O)OC)c1ccccc1Oc1cc(OCCc2c(Cl)cccc2Cl)ncn1 [373 of Table I]	4 (4=no disease)	3 (3=trace-5% of disease on untreated plants)	4 (4=no disease)	4 (4=no disease)	4 (4=no disease)	4 (4=no disease)	–	–	–	–	–	–
CO/C=C(/C(=O)OC)c1ccccc1Oc1cc(S(=O)(=O)c2ccccc2)ncn1 [3 of Table I]	4 (4=no disease)	0 (0=60-100% of disease on untreated plants)	0 (0=60-100% of disease on untreated plants)	2 (2=6-25% of disease on untreated plants)	3 (3=trace-5% of disease on untreated plants)	4 (4=no disease)	–	–	–	–	–	–
CO/C=C(/C(=O)OC)c1ccccc1Oc1cc(OCCCc2ccccc2[N+](=O)[O-])ncn1 [361 of Table I]	4 (4=no disease)	4 (4=no disease)	4 (4=no disease)	4 (4=no disease)	4 (4=no disease)	4 (4=no disease)	–	–	–	–	–	–
CO/C=C(/C(=O)OC)c1ccccc1Oc1cc(OCCc2ccccc2C)ncn1 [364 of Table I]	4 (4=no disease)	4 (4=no disease)	4 (4=no disease)	4 (4=no disease)	4 (4=no disease)	4 (4=no disease)	–	–	–	–	–	–
CO/C=C(/C(=O)OC)c1ccccc1Oc1cc(OCCCc2ccccc2)ncn1 [360 of Table I]	4 (4=no disease)	4 (4=no disease)	4 (4=no disease)	4 (4=no disease)	4 (4=no disease)	4 (4=no disease)	–	–	–	–	–	–
CO/C=C(/C(=O)OC)c1ccccc1Oc1cc(OCCc2ccccc2C(F)(F)F)ncn1 [363 of Table I]	4 (4=no disease)	4 (4=no disease)	4 (4=no disease)	4 (4=no disease)	4 (4=no disease)	4 (4=no disease)	–	–	–	–	–	–
CO/C=C(/C(=O)OC)c1ccccc1Oc1cc(NC(=S)c2ccccc2O)ncn1 [367 of Table I]	–	–	–	–	–	–	4^a (4=no disease)	0^a (0=60-100% of disease on untreated plants)	3^a (3=trace-5% of disease on untreated plants)	0^a (0=60-100% of disease on untreated plants)	4^a (4=no disease)	2^a (2=6-25% of disease on untreated plants)
CO/C=C(/C(=O)OC)c1ccccc1Oc1cc(OCCc2ccccc2)ncn1 [96 of Table I]	4 (4=no disease)	4 (4=no disease)	4 (4=no disease)	3 (3=trace-5% of disease on untreated plants)	4 (4=no disease)	–	–	–	–	–	–	–

— patent US6777412B2 (priority 1990, dated 2004)
